One experiment addresses T1, HePTP (Homo sapiens, UniProt P35236).
T1 construct: His; made in house; host or cells: E. coli
T1 sequence (P35236 1-360): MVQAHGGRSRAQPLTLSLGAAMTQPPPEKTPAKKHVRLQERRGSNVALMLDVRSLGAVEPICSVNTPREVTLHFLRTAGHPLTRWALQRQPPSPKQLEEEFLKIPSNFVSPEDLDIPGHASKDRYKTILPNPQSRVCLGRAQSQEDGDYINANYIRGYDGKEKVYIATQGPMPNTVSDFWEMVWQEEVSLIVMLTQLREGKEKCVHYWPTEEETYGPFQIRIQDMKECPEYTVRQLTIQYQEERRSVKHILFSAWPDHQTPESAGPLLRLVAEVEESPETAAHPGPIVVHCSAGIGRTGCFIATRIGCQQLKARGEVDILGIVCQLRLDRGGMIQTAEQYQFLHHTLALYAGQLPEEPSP
The experiment is described as follows: PTPs activity assay (DiFMUP). The format is biochemical. As to the method: (§1) Catalytic activity screening methods for PTPs using candidate compounds were performed as previously described.^[ [77] ^] In brief, soluble fusion PTP proteins, His‐ΔSHP2, encompassing the peptide from amino acids 205–593 retaining PTP activity, His‐ΔSHP2^K325A, His‐ΔSHP1, encompassing the peptide from amino acids 202–595 retaining PTP activity, His‐PTP1B, His‐HePTP, His‐VHR, and His‐TCPTP were cloned, expressed, and purified in E. coli. After determining protein concentration using bicinchoninic acid (BCA) assay kit, 1 µg fusion protein, 10 µM library compound were added in 100 µL reaction mixture (55 mM 4‐(2‐hydroxyethyl)‐1‐piperazineethanesulfonic acid [HEPES], 100 mM sodium chloride [NaCl], 0.5 mM ethylenediaminetetraacetic acid [EDTA], 1 mM dithiothreitol [DTT], 0.01% Triton X‐100, 0.002% bovine serum albumin [BSA], and 0.1% dimethyl sulfoxide [DMSO]) and incubated at 37 °C for 30 min in the dark, with Na3VO4 as positive control. The detection substrate DiFMUP (50 µM) was promptly added to each reaction and functioned at 37 °C for 30 min in the dark. The fluorescence intensity was then measured using Multimode Plate Reader (λa = 358 nm, λe = 455 nm, PerkinElmer, USA).

Another experiment deals with T2, PTP1B (Homo sapiens, UniProt P18031).
T2 construct: His; made in house; host or cells: E. coli
T2 sequence (P18031 1-435): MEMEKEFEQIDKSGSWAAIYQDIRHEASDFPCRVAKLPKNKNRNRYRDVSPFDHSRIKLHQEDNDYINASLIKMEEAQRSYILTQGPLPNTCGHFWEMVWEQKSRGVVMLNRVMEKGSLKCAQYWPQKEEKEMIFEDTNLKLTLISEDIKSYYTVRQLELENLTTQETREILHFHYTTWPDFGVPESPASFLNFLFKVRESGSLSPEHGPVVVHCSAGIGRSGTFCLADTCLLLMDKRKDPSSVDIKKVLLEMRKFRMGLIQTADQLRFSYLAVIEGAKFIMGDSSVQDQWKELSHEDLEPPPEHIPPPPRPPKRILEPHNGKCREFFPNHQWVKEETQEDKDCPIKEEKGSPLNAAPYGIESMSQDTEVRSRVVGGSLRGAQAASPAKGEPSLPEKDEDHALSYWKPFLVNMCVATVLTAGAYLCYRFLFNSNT
Kind of experiment: PTPs activity assay (DiFMUP). The format is biochemical. To be noted: read-out: IC50 of PTPs PTP1B. Here is the method: as §1

Another experiment has as its target T3, TCPTP (Homo sapiens, UniProt P17706).
T3 construct: His; made in house; host or cells: E. coli
T3 sequence (P17706 1-415): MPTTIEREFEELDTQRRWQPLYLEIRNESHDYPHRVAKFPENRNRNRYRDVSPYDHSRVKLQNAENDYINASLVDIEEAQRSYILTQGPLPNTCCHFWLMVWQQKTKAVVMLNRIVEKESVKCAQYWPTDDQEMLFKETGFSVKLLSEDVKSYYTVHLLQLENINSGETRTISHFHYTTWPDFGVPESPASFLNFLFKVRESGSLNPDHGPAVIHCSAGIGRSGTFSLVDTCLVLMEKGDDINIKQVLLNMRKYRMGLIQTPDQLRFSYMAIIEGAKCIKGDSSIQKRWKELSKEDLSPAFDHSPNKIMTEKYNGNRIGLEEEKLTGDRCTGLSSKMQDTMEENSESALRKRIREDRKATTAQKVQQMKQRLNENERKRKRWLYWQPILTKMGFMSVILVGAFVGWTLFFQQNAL
Kind of experiment: PTPs activity assay (DiFMUP). The experiment is classed as biochemical. Here is the method: as §1

For a further experiment, the target named is T4, VHR (Homo sapiens, UniProt P51452).
T4 construct: His; made in house; host or cells: E. coli
The experiment is described as follows: PTPs activity assay (DiFMUP). The format is biochemical. As to the method: as §1

The target in another experiment is T5, ΔSHP1 (Homo sapiens, UniProt P29350).
T5 construct: His‐ΔSHP1, encompassing the peptide from amino acids 202–595 retaining PTP activity; His; made in house; host or cells: E. coli
The experiment is described as follows: PTPs activity assay (DiFMUP). The experiment is classed as biochemical. As to the method: as §1

The target of a further experiment is T6, ΔSHP2 (Homo sapiens, UniProt Q06124).
T6 construct: His‐ΔSHP2, encompassing the peptide from amino acids 205–593 retaining PTP activity; His; made in house; host or cells: E. coli
T6 sequence (Q06124 205-593): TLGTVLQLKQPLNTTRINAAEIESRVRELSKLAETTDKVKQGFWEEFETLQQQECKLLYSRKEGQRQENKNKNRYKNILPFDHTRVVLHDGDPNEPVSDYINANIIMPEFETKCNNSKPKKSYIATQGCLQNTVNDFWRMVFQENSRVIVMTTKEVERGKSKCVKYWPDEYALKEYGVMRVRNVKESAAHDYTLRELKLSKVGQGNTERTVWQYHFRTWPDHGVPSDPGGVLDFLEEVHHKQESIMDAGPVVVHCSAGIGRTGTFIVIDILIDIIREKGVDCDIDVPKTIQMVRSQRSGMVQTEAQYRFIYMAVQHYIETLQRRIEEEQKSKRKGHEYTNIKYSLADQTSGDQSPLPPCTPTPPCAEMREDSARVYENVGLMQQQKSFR
Kind of experiment: PTPs activity assay (DiFMUP). The format is biochemical. As to the method:
as §1

In experiment [1] the test system is A549, NCI‐H2122, and NCI‐H1944 cells. The experiment is described as follows: Effect of candidate drugs on cell viability and colony formation. The experiment is classed as cell-based, human. The conditions noted are these: 1, 10 and 50 μM viability; 10 µM colony formation. As to the method:
supplies are listed in Supplementary Table S5. The relevant reagents for protein extraction from Escherichia coli are listed in Supplementary Table S6. Inhibitory effects of embelin on KRAS-mutant and wild-type cells are listed in Supplementary Table S7.
For the adherent cell viability assay, cells in the logarithmic growth phase were seeded in 96-well culture plates at a density of 5×103 well-1 and incubated overnight. Diluted compounds or DMSO were added, or specific treatments were incubated at 37 °C and 5% CO2 for 24 h or 48 h. Cell viability was determined using CCK-8 or CellLightTM Cell Viability Assay Kit, according to the manufacturer's protocol. The luminescence signals of the treated samples were normalized to those of the DMSO group.
For spherical cell viability assays, cells in the logarithmic growth phase were inoculated ata density of 4×10^3 well-1 into 96-well spherical cell microplates and incubated at 37 °C, 5% CO2 for 24 h or 48 h. Cell viability was measured using the CellTiter-Glo® Luminescent Cell Viability 3D Cell Viability Assay Kit, according to the manufacturer’s protocol. The remaining steps were the same as those described above.
Colony formation experiment […]
Finally, the staining results were recorded using an inverted microscope. […]

We go through one compound from paper PMC12005787, “Synthetic Lethality of SHP2 and XIAP Suppresses Proliferation and Metastasis in KRAS‐mutant Nonsmall Cell Lung Cancer” (Advanced Science, 2025).

Bounds are passed on as bounds.

In general, IC50 refers to the concentration needed to halve the response being measured.

T4 sequence (P51452 whole entry): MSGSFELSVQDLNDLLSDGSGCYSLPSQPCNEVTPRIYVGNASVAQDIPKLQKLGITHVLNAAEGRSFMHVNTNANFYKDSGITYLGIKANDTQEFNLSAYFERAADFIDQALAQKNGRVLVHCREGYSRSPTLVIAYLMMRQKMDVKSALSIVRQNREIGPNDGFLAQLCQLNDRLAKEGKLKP
T5 sequence (P29350 202-595, stated change not applied): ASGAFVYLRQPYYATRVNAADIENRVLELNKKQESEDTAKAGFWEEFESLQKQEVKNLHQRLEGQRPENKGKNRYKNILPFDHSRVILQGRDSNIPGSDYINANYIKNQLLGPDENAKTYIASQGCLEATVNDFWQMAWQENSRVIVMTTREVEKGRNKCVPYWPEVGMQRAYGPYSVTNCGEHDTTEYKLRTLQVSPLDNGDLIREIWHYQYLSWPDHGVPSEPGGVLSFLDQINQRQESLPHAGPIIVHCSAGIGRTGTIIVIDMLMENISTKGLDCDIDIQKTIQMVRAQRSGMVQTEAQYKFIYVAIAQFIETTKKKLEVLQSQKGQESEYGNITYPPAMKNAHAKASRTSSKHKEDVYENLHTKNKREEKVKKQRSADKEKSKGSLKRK

In the case of `CC1=NN(c2ccc(C)c(C)c2)C(=O)/C1=N\Nc1cccc(-c2cccc(C(=O)O)c2)c1O` [S2229, Eltrombopag Olamine], the IC50 at HePTP was 202 µM; at PTP1B, 145 µM; on TCPTP, above 200 µM; against VHR, 242 µM; on ΔSHP1, above 200 µM; on ΔSHP2, 21.7 µM. Moreover, the “effect on proliferation of KRAS‐mutation cells” value in experiment [1] is listed as “inhibited the proliferation”.
